According to ChEMBL document CHEMBL4049381 (Medchemcomm, 2016):

Key:
[1] = molecular target: T1, Solute carrier organic anion transporter family member 2B1 (Homo sapiens, UniProt O94956); assay: Drug uptake assessed as human OATP2B1 expressed in Xenopus laevis oocyte mediated drug accumulation per 30 mins per oocyte at 0.003 uM by LC-MS/MS method; format: ADME; settings: 0.5 h
T1 sequence (O94956 whole entry): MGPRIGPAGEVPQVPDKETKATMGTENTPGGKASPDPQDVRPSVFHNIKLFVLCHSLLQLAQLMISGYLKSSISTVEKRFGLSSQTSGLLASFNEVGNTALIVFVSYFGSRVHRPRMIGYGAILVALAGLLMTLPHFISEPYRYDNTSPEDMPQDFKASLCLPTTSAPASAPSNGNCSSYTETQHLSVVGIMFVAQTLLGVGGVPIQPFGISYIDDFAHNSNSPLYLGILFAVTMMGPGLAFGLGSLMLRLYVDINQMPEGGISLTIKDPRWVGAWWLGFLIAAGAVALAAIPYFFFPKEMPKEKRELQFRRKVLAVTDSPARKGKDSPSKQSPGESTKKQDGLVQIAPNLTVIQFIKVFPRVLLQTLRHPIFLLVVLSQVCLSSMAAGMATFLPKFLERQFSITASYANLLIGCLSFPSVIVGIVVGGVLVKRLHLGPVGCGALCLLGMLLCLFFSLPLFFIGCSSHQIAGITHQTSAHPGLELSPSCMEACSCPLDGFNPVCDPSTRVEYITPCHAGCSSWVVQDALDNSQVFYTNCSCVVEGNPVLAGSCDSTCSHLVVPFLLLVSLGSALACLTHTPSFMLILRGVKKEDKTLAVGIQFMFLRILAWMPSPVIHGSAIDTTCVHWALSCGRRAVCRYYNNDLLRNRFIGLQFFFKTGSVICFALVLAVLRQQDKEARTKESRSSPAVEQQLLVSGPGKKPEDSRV

[2] = molecular target: T2, Solute carrier organic anion transporter family member 2B1 (Homo sapiens, UniProt O94956, R607A); assay: Drug uptake assessed as human OATP2B1 R607A mutant expressed in Xenopus laevis oocyte mediated drug accumulation at 0.003 uM after 30 mins by LC-MS/MS method relative to wild type protein; format: ADME; settings: 0.5 h
[3] = molecular target: T3, Solute carrier organic anion transporter family member 2B1 (Homo sapiens, UniProt O94956, H579Q); assay: Drug uptake assessed as human OATP2B1 H579Q mutant expressed in Xenopus laevis oocyte mediated drug accumulation at 0.003 uM after 30 mins by LC-MS/MS method relative to wild type protein; format: ADME; settings: 0.5 h
[4] = molecular target: T4, Solute carrier organic anion transporter family member 2B1 (Homo sapiens, UniProt O94956, H618Q); assay: Drug uptake assessed as human OATP2B1 H618Q mutant expressed in Xenopus laevis oocyte mediated drug accumulation at 0.003 uM after 30 mins by LC-MS/MS method relative to wild type protein; format: ADME; settings: 0.5 h
[5] = molecular target: T2, Solute carrier organic anion transporter family member 2B1; assay: Drug uptake assessed as human OATP2B1 R607A mutant expressed in Xenopus laevis oocyte mediated drug accumulation at 1 uM after 120 mins by LC-MS/MS method relative to wild type protein; format: ADME; settings: 2 h
[6] = molecular target: T1, Solute carrier organic anion transporter family member 2B1; assay: Drug uptake assessed as human OATP2B1 expressed in Xenopus laevis oocyte mediated drug accumulation per 120 mins per oocyte at 1 uM by LC-MS/MS method; format: ADME; settings: 2 h
[7] = molecular target: T3, Solute carrier organic anion transporter family member 2B1; assay: Drug uptake assessed as human OATP2B1 H579Q mutant expressed in Xenopus laevis oocyte mediated drug accumulation at 1 uM after 120 mins by LC-MS/MS method relative to wild type protein; format: ADME; settings: 2 h
[8] = molecular target: T4, Solute carrier organic anion transporter family member 2B1; assay: Drug uptake assessed as human OATP2B1 H618Q mutant expressed in Xenopus laevis oocytes mediated drug accumulation at 1 uM after 120 mins by LC-MS/MS method relative to wild type protein; format: ADME, cell-based; settings: 2 h
[9] = molecular target: T3, Solute carrier organic anion transporter family member 2B1; assay: Drug uptake assessed as human OATP2B1 H579Q mutant expressed in Xenopus laevis oocyte mediated drug accumulation at 1 uM after 180 mins by LC-MS/MS method relative to wild type protein; format: ADME; settings: 3 h
[10] = molecular target: T1, Solute carrier organic anion transporter family member 2B1; assay: Drug uptake assessed as human OATP2B1 expressed in Xenopus laevis oocyte mediated drug accumulation per 180 mins per oocyte at 1 uM by LC-MS/MS method; format: ADME; settings: 3 h
[11] = molecular target: T2, Solute carrier organic anion transporter family member 2B1; assay: Drug uptake assessed as human OATP2B1 R607A mutant expressed in Xenopus laevis oocyte mediated drug accumulation at 1 uM after 180 mins by LC-MS/MS method relative to wild type protein; format: ADME; settings: 3 h
[12] = molecular target: T4, Solute carrier organic anion transporter family member 2B1; assay: Drug uptake assessed as human OATP2B1 H618Q mutant expressed in Xenopus laevis oocyte mediated drug accumulation at 1 uM after 180 mins by LC-MS/MS method relative to wild type protein; format: ADME; settings: 3 h
[13] = test system: C[C@]12CC[C@@H]3c4ccc(OS(=O)(=O)O)cc4CC[C@H]3[C@@H]1CCC2=O; assay: Substrate activity at human OATP2B1 H579Q mutant high affinity site expressed in Xenopus laevis oocytes assessed as Km for transporter-mediated drug accumulation after 15 mins by Eadie-Hofstee plot method; format: ADME, cell-based
[14] = test system: C[C@]12CC[C@@H]3c4ccc(OS(=O)(=O)O)cc4CC[C@H]3[C@@H]1CCC2=O; assay: Substrate activity at human OATP2B1 H618Q mutant low affinity site expressed in Xenopus laevis oocytes assessed as Km for transporter-mediated drug accumulation after 15 mins by Eadie-Hofstee plot method; format: ADME, cell-based
[15] = test system: C[C@]12CC[C@@H]3c4ccc(OS(=O)(=O)O)cc4CC[C@H]3[C@@H]1CCC2=O; assay: Substrate activity at human OATP2B1 H618Q mutant high affinity site expressed in Xenopus laevis oocytes assessed as Km for transporter-mediated drug accumulation after 15 mins by Eadie-Hofstee plot method; format: ADME, cell-based
[16] = substrate: CC[C@H](C)C(=O)O[C@H]1C[C@H](O)C=C2C=C[C@H](C)[C@H](CC[C@@H](O)C[C@@H](O)CC(=O)O)[C@H]21; assay: (§1) Drug uptake assessed as OATP2B1 low affinity site (unknown origin)-mediated drug uptake; format: ADME, Homo sapiens
[17] = substrate: C[C@]12CC[C@@H]3c4ccc(OS(=O)(=O)O)cc4CC[C@H]3[C@@H]1CCC2=O; assay: as §1; format: ADME, Homo sapiens
[18] = substrate: O=C(O)c1cc(/N=N/c2ccc(S(=O)(=O)Nc3ccccn3)cc2)ccc1O; assay: (§2) Drug uptake assessed as OATP2B1 high affinity site (unknown origin)-mediated drug uptake; format: ADME, Homo sapiens
[19] = substrate: CC[C@H](C)C(=O)O[C@H]1C[C@H](O)C=C2C=C[C@H](C)[C@H](CC[C@@H](O)C[C@@H](O)CC(=O)O)[C@H]21; assay: as §2; format: ADME, Homo sapiens
[20] = substrate: C[C@]12CC[C@@H]3c4ccc(OS(=O)(=O)O)cc4CC[C@H]3[C@@H]1CCC2=O; assay: as §2; format: ADME, Homo sapiens
[21] = substrate: C[C@]12CC[C@@H]3c4ccc(OS(=O)(=O)O)cc4CC[C@H]3[C@@H]1CCC2=O; assay: Substrate activity at human OATP2B1 low affinity site expressed in Xenopus laevis oocytes assessed as Km for transporter-mediated drug accumulation after 15 mins by Eadie-Hofstee plot method; format: ADME, cell-based
[22] = substrate: C[C@]12CC[C@@H]3c4ccc(OS(=O)(=O)O)cc4CC[C@H]3[C@@H]1CCC2=O; assay: Substrate activity at human OATP2B1 high affinity site expressed in Xenopus laevis oocytes assessed as Km for transporter-mediated drug accumulation after 15 mins by Eadie-Hofstee plot method; format: ADME, cell-based

T3 sequence (O94956 whole entry T392I/H579Q): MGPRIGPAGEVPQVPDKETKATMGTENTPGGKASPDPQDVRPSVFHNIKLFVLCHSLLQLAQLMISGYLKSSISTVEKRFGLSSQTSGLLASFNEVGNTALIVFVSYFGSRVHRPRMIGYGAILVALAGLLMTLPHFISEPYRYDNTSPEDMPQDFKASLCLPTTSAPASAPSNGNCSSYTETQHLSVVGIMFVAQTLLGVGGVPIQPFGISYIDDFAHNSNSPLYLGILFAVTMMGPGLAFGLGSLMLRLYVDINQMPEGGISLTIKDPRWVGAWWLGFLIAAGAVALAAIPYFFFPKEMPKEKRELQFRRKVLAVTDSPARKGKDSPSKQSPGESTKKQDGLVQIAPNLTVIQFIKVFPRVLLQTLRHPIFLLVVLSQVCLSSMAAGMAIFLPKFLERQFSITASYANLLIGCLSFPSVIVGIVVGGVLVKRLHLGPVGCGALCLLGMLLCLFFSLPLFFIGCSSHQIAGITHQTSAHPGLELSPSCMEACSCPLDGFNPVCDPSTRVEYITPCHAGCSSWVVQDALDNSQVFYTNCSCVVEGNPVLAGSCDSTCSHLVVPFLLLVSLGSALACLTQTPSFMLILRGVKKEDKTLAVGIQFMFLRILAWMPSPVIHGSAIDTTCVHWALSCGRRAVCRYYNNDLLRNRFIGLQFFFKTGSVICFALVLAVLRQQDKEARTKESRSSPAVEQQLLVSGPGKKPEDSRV
T2 sequence (O94956 whole entry T392I/R607A): as the sequence (O94956 whole entry T392I/H579Q) above, with Q579H, R607A counted along it
T4 sequence (O94956 whole entry T392I/H618Q): as the sequence (O94956 whole entry T392I/H579Q) above, with Q579H, H618Q counted along it

With `CCCCC[C@H](O)/C=C/[C@H]1[C@H](O)CC(=O)[C@@H]1C/C=C\CCCC(=O)O` [DINOPROSTONE] the Drug uptake [1] was 0.461 µL, the Drug uptake [2] was 45.3% and the Drug uptake [3] was 138%. For the same molecule, the Drug uptake [4] was 97.4%.

`CC(C)(C(=O)O)c1ccc(C(O)CCCN2CCC(C(O)(c3ccccc3)c3ccccc3)CC2)cc1` (stereo not given) [FEXOFENADINE] gave a Drug uptake [5] of 28.5%, a Drug uptake [6] of 0.056 µL and a Drug uptake [7] of 147%. It also gave a Drug uptake [8] of 121%.

For `CC[C@H](C)C(=O)O[C@H]1C[C@H](O)C=C2C=C[C@H](C)[C@H](CC[C@@H](O)C[C@@H](O)CC(=O)O)[C@H]21` [PRAVASTATIN], the Drug uptake [9] was 32.5%, the Drug uptake [10] was 0.196 µL and the Drug uptake [11] was 0.2%. For the same molecule, the Drug uptake [12] was 40%.

For `CC(C)c1nc(N(C)S(C)(=O)=O)nc(-c2ccc(F)cc2)c1/C=C/[C@@H](O)C[C@@H](O)CC(=O)O` [ROSUVASTATIN], the Drug uptake [5] was 5.79%, the Drug uptake [6] was 2.951 µL and the Drug uptake [7] was 39.8%. For the same molecule, the Drug uptake [8] was 33.1%.

For `O=C(O)c1cc(/N=N/c2ccc(S(=O)(=O)Nc3ccccn3)cc2)ccc1O` [SULFASALAZINE], the Drug uptake [5] was 7.57%, the Drug uptake [6] was 1.934 µL and the Drug uptake [7] was 41%. It also gave a Drug uptake [8] of 22.2%.

Work on “Solute carrier organic anion transporter family member 2B1 (Homo sapiens; H579Q)” yielded a Km [13] of 0.18 µM.

With “Solute carrier organic anion transporter family member 2B1 (Homo sapiens; H618Q)” the Km [14] was 91.1 µM and the Km [15] was 0.149 µM.

B1: Solute carrier organic anion transporter family member 2B1 (Homo sapiens) (protein)
chain: T1 sequence (O94956 whole entry)
B1 was tested, and the Km [16] was 225 µM, the Km [17] was 29.9 µM and the Km [18] was 1.73 µM. It also gave a Km [19] of 6.25 µM, a Km [20] of 0.1 µM and a Km [21] of 51.4 µM. The Km [22] was 0.463 µM.
